pIC50: −log10 of the molar value.
Experiments:
Type in all cases: biochemical
human JAK2 = human JAK2 (Homo sapiens (Human), UniProt O60674); test: In vitro JAK kinase assay (HTRF, phosphorylation of a biotinylated peptide), JAK2; parameters: key to JAK2 IC50 (nM): +indicates an IC50 of ≦100 nM; ++indicates an IC50 of ≦1000 nM; +++indicates an IC50 of ≦2000 nM; ++++indicates an IC50 of >2000 nM; +++++indicates that the IC50 was greater than the highest concentration tested; settings: 1 mM ATP
Outline: (§1)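 Baculovirus-expressed catalytic domains (JAK1 a.a. 837-1142, JAK2 a.a. 828-1132) phosphorylate 500 nM biotinylated peptide at 1 mM ATP, Tris pH 7.8, 1 h at room temperature. EDTA stop and HTRF detection with Eu-Py20/SA-APC; IC50 values derived.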

human JAK1 [1] = biological target: human JAK1 (Homo sapiens, UniProt P23458); test: In vitro JAK kinase assay (HTRF, phosphorylation of a biotinylated peptide), JAK1; settings: 1 mM ATP
Outline: as §1

human JAK1 [2] = test: as above; settings: ratio of IC50s, 1 mM ATP
Outline: as §1

Sequence of human JAK2 (O60674 828-1132): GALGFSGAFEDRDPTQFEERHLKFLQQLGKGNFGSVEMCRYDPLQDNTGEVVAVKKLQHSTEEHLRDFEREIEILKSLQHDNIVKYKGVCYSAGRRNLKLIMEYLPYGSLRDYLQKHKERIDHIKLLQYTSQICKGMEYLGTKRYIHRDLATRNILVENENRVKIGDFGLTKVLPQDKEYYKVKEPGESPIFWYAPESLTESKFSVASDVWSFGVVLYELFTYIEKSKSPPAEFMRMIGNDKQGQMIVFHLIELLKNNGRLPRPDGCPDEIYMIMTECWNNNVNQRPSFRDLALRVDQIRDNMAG

Row | Compound | pIC50 (human JAK2) | pIC50 (human JAK1 [1]) | JAK2/JAK1 (human JAK1 [2]) | JAK2 IC50 (nM) (human JAK2)
1 | CC(C)OC(=O)NC[C@H]1CC[C@H](n2c([C@@H](C)O)nc3cnc4ccsc4c32)CO1 [Example 76, Isopropyl [((2R,5S)-5-{2-[(1R)-1-hydroxyethyl]-1H-imidazo[4,5-d]thieno[3,2-b]pyridin-1-yl}tetrahydro-2H-pyran-2-yl)methyl]carbamate] | ≥ 5.70 | ≥ 7.00 | >10 | –
2 | COC(=O)NC[C@H]1CC[C@H](n2c([C@@H](C)O)nc3cnc4ccsc4c32)CC1 [Example 78, Methyl [(trans-4-{2-[(1R)-1-hydroxyethyl]-1H-imidazo[4,5-d]thieno[3,2-b]pyridin-1-yl}cyclohexyl)methyl]carbamate] | ≥ 6.00 | ≥ 7.00 | >10 | –
3 | CC(=O)NC[C@H]1CC[C@H](n2c([C@@H](C)O)nc3cnc4ccsc4c32)CC1 [Example 79, N-[(trans-4-{2-[(1R)-1-Hydroxyethyl]-1H-imidazo[4,5-b]thieno[3,2-b]pyridin-1-yl}cyclohexyl)methyl]acetamide] | ≥ 5.70 | ≥ 7.00 | >10 | –
4 | C[C@@H](O)c1nc2cnc3ccsc3c2n1[C@H]1CC[C@H](CNS(C)(=O)=O)CC1 [Example 80, N-[(trans-4-{2-[(1R)-1-Hydroxyethyl]-1H-imidazo[4,5-d]thieno[3,2-b]pyridin-1-yl}cyclohexyl)methyl]methanesulfonamide] | ≥ 5.70 | ≥ 7.00 | >10 | –
5 | C[C@@H](O)c1nc2cnc3ccsc3c2n1[C@H]1CC[C@H](CNC(=O)N(C)C)CC1 [Example 81, N′-[(trans-4-{2-[(1R)-1-Hydroxyethyl]-1H-imidazo[4,5-d]thieno[3,2-b]pyridin-1-yl}cyclohexyl)methyl]-N,N-dimethylurea] | < 5.70 | ≥ 7.00 | >10 | –
6 | CCOC(=O)NC[C@H]1CC[C@H](n2c([C@@H](C)O)nc3cnc4ccsc4c32)CC1 [Example 82, Ethyl [(trans-4-{2-[(1R)-1-hydroxyethyl]-1H-imidazo[4,5-d]thieno[3,2-b]pyridin-1-yl}cyclohexyl)methyl]carbamate] | ≥ 6.00 | ≥ 7.00 | >10 | –
7 | CCCOC(=O)NC[C@H]1CC[C@H](n2c([C@@H](C)O)nc3cnc4ccsc4c32)CC1 [Example 83, Propyl [(trans-4-{2-[(1R)-1-hydroxyethyl]-1H-imidazo[4,5-d]thieno[3,2-b]pyridin-1-yl}cyclohexyl)methyl]carbamate] | ≥ 6.00 | ≥ 7.00 | >10 | –
8 | CC(C)OC(=O)NC[C@H]1CC[C@H](n2c([C@@H](C)O)nc3cnc4ccsc4c32)CC1 [Example 84, Isopropyl [(trans-4-{2-[(1R)-1-hydroxyethyl]-1H-imidazo[4,5-d]thieno[3,2-b]pyridin-1-yl}cyclohexyl)methyl]carbamate] | ≥ 6.00 | ≥ 7.00 | >10 | –
9 | C[C@@H](O)c1nc2cnc3ccsc3c2n1[C@H]1CC[C@H](CNC(=O)OC2CCOC2)CC1 (stereo partly drawn) [Example 85, Tetrahydrofuran-3-yl [(trans-4-{2-[(1R)-1-hydroxyethyl]-1H-imidazo[4,5-d]thieno[3,2-b]pyridin-1-yl}cyclohexyl)methyl]carbamate] | – | ≥ 7.00 | >10 | +++++
10 | COC(=O)NC[C@H]1CC[C@H](n2c(CC#N)nc3cnc4ccsc4c32)CC1 [Example 86, Methyl ({trans-4-[2-(cyanomethyl)-1H-imidazo[4,5-d]thieno[3,2-b]pyridin-1-yl]cyclohexyl}methyl)carbamate] | ≥ 6.00 | ≥ 7.00 | >10 | –
11 | CCOC(=O)NC[C@H]1CC[C@H](n2c(CC#N)nc3cnc4ccsc4c32)CC1 [Example 87, Ethyl ({trans-4-[2-(cyanomethyl)-1H-imidazo[4,5-d]thieno[3,2-b]pyridin-1-yl]cyclohexyl}methyl)carbamate] | ≥ 6.00 | ≥ 7.00 | >10 | –
12 | CC(C)OC(=O)NC[C@H]1CC[C@H](n2c(CC#N)nc3cnc4ccsc4c32)CC1 [Example 88, Isopropyl ({trans-4-[2-(cyanomethyl)-1H-imidazo[4,5-d]thieno[3,2-b]pyridin-1-yl]cyclohexyl}methyl)carbamate] | – | ≥ 7.00 | >10 | +++++
13 | CCC(=O)NC[C@H]1CC[C@H](n2c(CC#N)nc3cnc4ccsc4c32)CC1 [Example 89, N-({trans-4-[2-(Cyanomethyl)-1H-imidazo[4,5-d]thieno[3,2-b]pyridin-1-yl]cyclohexyl}methyl)propanamide] | < 5.70 | ≥ 7.00 | >10 | –
14 | N#CCc1nc2cnc3ccsc3c2n1[C@H]1CC[C@H](CC#N)CC1 [Example 90, {1-[trans-4-(Cyanomethyl)cyclohexyl]-1H-imidazo[4,5-d]thieno[3,2-b]pyridin-2-yl}acetonitrile] | ≥ 6.00 | ≥ 7.00 | >10 | –
15 | N#CC[C@H]1CC[C@H](n2c(CO)nc3cnc4ccsc4c32)CO1 [Example 91, {(2R,5S)-5-[2-(Hydroxymethyl)-1H-imidazo[4,5-b]thieno[3,2-b]pyridin-1-yl]tetrahydro-2H-pyran-2-yl}acetonitrile] | ≥ 6.00 | ≥ 7.00 | >10 | –
16 | ((1R,2R,4S)-2-Hydroxy-4-{2-[(1R)-1-hydroxyethyl]-1H-imidazo[4,5-d]thieno[3,2-b]pyridin-1-yl}cyclohexyl)acetonitrile and ((1S,2S,4R)-2-hydroxy-4-{2-[(1R)-1-hydroxyethyl]-1H-imidazo[4,5-d]thieno[3,2-b]pyridin-1-yl}cyclohexyl)acetonitrile [36 (first peak)] | < 5.70 | ≥ 7.00 | >10 | –
17 | ((1R,2R,4S)-2-Hydroxy-4-{2-[(1R)-1-hydroxyethyl]-1H-imidazo[4,5-d]thieno[3,2-b]pyridin-1-yl}cyclohexyl)acetonitrile and ((1S,2S,4R)-2-hydroxy-4-{2-[(1R)-1-hydroxyethyl]-1H-imidazo[4,5-d]thieno[3,2-b]pyridin-1-yl}cyclohexyl)acetonitrile [36 (second peak)] | ≥ 6.00 | ≥ 7.00 | >10 | –
18 | ((1R,2S,4S)-2-Hydroxy-4-{2-[(1R)-1-hydroxyethyl]-1H-imidazo[4,5-d]thieno[3,2-b]pyridin-1-yl}cyclohexyl)acetonitrile trifluoacetate and ((1S,2R,4R)-2-hydroxy-4-{2-[(1R)-1-hydroxyethyl]-1H-imidazo[4,5-d]thieno[3,2-b]pyridin-1-yl}cyclohexyl)acetonitrile trifluoacetate [37 (first peak)] | – | ≥ 6.00 | >10 | +++++
19 | ((1R,2S,4S)-2-Hydroxy-4-{2-[(1R)-1-hydroxyethyl]-1H-imidazo[4,5-d]thieno[3,2-b]pyridin-1-yl}cyclohexyl)acetonitrile trifluoacetate and ((1S,2R,4R)-2-hydroxy-4-{2-[(1R)-1-hydroxyethyl]-1H-imidazo[4,5-d]thieno[3,2-b]pyridin-1-yl}cyclohexyl)acetonitrile trifluoacetate [37 (second peak)] | ≥ 6.00 | ≥ 7.00 | >10 | –
20 | [(1R,2S,4S)-4-(2-Ethyl-1H-imidazo[4,5-d]thieno[3,2-b]pyridin-1-yl)-2-hydroxycyclohexyl]acetonitrile and [(1S,2R,4R)-4-(2-ethyl-1H-imidazo[4,5-d]thieno[3,2-b]pyridin-1-yl)-2-hydroxycyclohexyl]acetonitrile [40 (first peak)] | ≥ 6.00 | ≥ 7.00 | >10 | –
21 | [(1R,2S,4S)-4-(2-Methyl-1H-imidazo[4,5-d]thieno[3,2-b]pyridin-1-yl)-2-hydroxycyclohexyl]acetonitrile and [(1S,2R,4R)-4-(2-methyl-1H-imidazo[4,5-d]thieno[3,2-b]pyridin-1-yl)-2-hydroxycyclohexyl]acetonitrile [41 (first peak)] | ≥ 6.00 | ≥ 7.00 | >10 | –
